Laboratory results from paper PMC6938345, “Inhibition of complement activation, myeloperoxidase, NET formation and oxidant activity by PIC1 peptide variants” (PLoS ONE, 2019).

Assays:
[1] = Peptide solubility in water
Description: (PA) (Table 1) were synthesized by New England Peptide (Gardner, MA) to >90% purity. Sarcosine variants and PEG were dissolved in water and the pH was adjusted with NaOH. PA was dissolved in DMSO and then brought up to the final concentration with water resulting in 30% DMSO and pH adjusted. Antibody sensitized sheep erythrocytes (EA), purified C1q and factor B-depleted human sera were purchased from Complement Technology (Tyler, TX). Purified myeloperoxidase was purchased from Lee BioSolutions (Maryland Heights, MO) and tetramethylbenzidine (TMB) and PicoGreen were purchased from Thermo Fisher (Waltham MA).
(PA), peptide derivatives were synthesized with sarcosine residues substituted at all 15 positions, included a peptide in which the vicinal cysteines at positions 9 and 10 (C9,C10) were replaced with a single sarcosine residue (Table 1).

MPO = molecular target: T1, MPO (Homo sapiens, UniProt P05164); experiment: MPO binding ELISA-type assay; conditions: solid phased MPO, plate-based
T1 construct: purchased Lee BioSolutions (Maryland Heights, MO)
T1 sequence (P05164 49-745): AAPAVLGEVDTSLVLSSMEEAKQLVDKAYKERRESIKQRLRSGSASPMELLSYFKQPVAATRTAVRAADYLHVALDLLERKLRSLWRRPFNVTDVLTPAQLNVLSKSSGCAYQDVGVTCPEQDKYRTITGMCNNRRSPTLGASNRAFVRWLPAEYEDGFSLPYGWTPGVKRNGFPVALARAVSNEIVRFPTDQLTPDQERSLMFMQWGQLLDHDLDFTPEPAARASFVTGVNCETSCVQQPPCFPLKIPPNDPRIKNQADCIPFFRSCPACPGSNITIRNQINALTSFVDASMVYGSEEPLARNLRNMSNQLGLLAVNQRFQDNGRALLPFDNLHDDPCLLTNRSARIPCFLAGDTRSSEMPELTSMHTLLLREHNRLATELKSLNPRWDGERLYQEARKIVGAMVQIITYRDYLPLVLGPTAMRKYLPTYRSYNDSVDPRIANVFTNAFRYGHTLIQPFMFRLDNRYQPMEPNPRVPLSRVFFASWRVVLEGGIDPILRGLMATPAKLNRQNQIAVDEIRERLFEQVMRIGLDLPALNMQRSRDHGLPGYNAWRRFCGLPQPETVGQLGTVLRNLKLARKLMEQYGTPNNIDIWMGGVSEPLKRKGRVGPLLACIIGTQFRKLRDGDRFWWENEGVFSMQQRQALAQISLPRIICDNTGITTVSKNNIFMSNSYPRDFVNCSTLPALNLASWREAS
Description: An Immunlon-2 HB ELISA plate was coated with 1 μg/ml C1q or MPO in bicarbonate buffer overnight at 4 °C. The plates were washed with PBST (phosphate buffered saline + 0.1% Tween) and then blocked with 1% gelatin/PBS for 2 hours at room temperature. After washing, the plates were incubated with PA or sarcosine variant peptides starting at 2.5 mg/ml and then serially diluted in 1% gelatin/PBS for 1 hour at room temperature. After washing, the plates were probed with rabbit anti-PA (developed with Cocalico Biologicals, Reamstown, PA) at 1:1000 in 1% gelatin/PBS for 1 hour, room temperature, followed by a goat anti-rabbit HRP (Sigma Aldrich, St Louis, MO) at 1:1,000 in 1% gelatin/PBS for 1 hour at room temperature with a washing step in between. Wells were developed using TMB substrate solution, stopped using 1 N H2SO4, and read at 450 nm in a plate reader.
We then tested the binding of the peptide variants to solid phased MPO in a plate-based assay. The binding curves are shown in Fig 2C with MPO binding identified for all variants except C9,10. Due to the near complete overlay of the I8 and PA curves, the PA curve is not shown in the graph. Half-maximal (Fig 2D) binding concentrations were calculated from these curves.

[2] = Total Antioxidant Capacity (TAC) assay
Description: The TAC (Total Antioxidant Capacity) Assay (Cell Biolabs, Inc, San Diego, CA) was used to measure the antioxidant capacity of the sarcosine variants based on the reduction of copper (II) to copper (I). The kit protocol was performed as recommended.
Antioxidant activity is measured in copper reducing equivalents (CRE). Peptides were tested over a range of concentrations from 0.03–0.25 mM then compared to the standard. Data are the means of n = 3 independent experiments + SEM.

[3] = test system: purified human neutrophils; experiment: NETosis assay, free DNA by PicoGreen; type: cell-based; conditions: Average of n = 3; peptide 2 mM
Description: NETosis assays with immune complexes were performed as previously described. Briefly, normal human serum was stimulated with ovalbumin-antiovalbumin immune complexes in GVBS^++ for 30 minutes at 37 °C. This mixture along with 0.05% H2O2 was then added to purified human neutrophils resuspended in RPMI with or without sarcosine variants (2 mM), allowing NETosis to occur. Quantitation of free DNA released from the neutrophils was performed using PicoGreen. Slides were stained with DAPI (Southern Biotech, Birmingham, AL) and the following antibodies, mouse anti-elastase (Invitrogen, Carlsbad, CA) was used with the secondary goat anti-mouse Alexa Fluor 568 (Novus Biologicals, Centennial, CO) and rabbit anti-histone H3 (Abcam, Cambridge MA) with goat anti-rabbit Alexa Fluor 488 (Novus Biologicals) to visualize formation of NETs which were imaged with fluorescence microscopy with an Olympus BX53 microscope.
In this assay purified human neutrophils are stimulated with normal human serum activated with ovalbumin-antiovalbumin immune complexes and hydrogen peroxide. Free DNA expressed from the neutrophils is then measured in a PicoGreen assay.
Fig 5 Sarcosine variant inhibition of NET formation. Fluorescence microscopy images of NET formation after neutrophil stimulation with immune complexes (IC) and hydrogen peroxide (H2O2) compared with neutrophil only control. Variant I8 inhibition of NET formation is shown in the third row. Histones are probed with anti-histone antibody (αhistone), neutrophil elastase is probed with anti-neutrophil elastase (αNE) and DNA is stained with DAPI. Representative images are shown. […] Purified human neutrophils were stimulated with 2% normal human sera pre-incubated with ovalbumin-antiovalbumin immune complexes, and 0.05% H2O2. Sarcosine peptides and PIC1 were added to the sera to a final concentration of 2 mM. Data are the means of n = 3 independent experiments + SEM.

In the case of `CC[C@H](C)[C@H](N)C(=O)N[C@@H](C)C(=O)N[C@@H](CC(C)C)C(=O)N[C@H](C(=O)N[C@@H](CC(C)C)C(=O)N[C@@H](CCC(=O)O)C(=O)N1CCC[C@H]1C(=O)N(C)CC(=O)N[C@@H](CS)C(=O)N[C@@H](CS)C(=O)N[C@@H](CCC(N)=O)C(=O)N[C@@H](CCC(=O)O)C(=O)N[C@@H](CCCNC(=N)N)C(=O)N[C@@H](C)C(=O)N[C@@H](C)C(=O)O)[C@@H](C)CC` [I8], the “solubility in water (in words)” value [1] is reported as “soluble in water”, the “binding to MPO (in words)” value (MPO) is reported as “superior binding to MPO” and the “TAC assay, antioxidant activity” value ([2]; Avg of n = 3) is reported as 1239.37 copper reducing equivalents (CRE). For the same compound, the “antioxidant capacity (in words)” value ([2]; TAC assay) was “approaching that of PA-dPEG24” and the “PICO green - NETs, free DNA release” value [3] was 43.
